{
  "source": "patent US7183320B2",
  "about": "“Benzoylsulfonamides and sulfonylbenzamidines for use as antitumour agents” (Eli Lilly and Company, priority 2002, dated 2007)",
  "key": {"[1]": {"tested_on": "HCT116 colon carcinoma cells", "assay": "HCT116 colon carcinoma cell growth inhibition (WST-1, 72 hr)", "format": "cell-based, human", "conditions": "Homo sapiens, HCT-116, 72 hr exposure", "method": "HCT116 Colon Carcinoma Cell Growth Inhibition\nHCT116 colon carcinoma cells were grown monolayer culture in RPMI 1640 medium supplemented with 10% fetal bovine serum and 1% penicillin-streptomycin (GibcoBRL, Grand Island, N.Y.). HCT116 cells in exponential growth phase were exposed to various concentrations of the test compounds at 37° C. for 72 hr in 5% carbon dioxide/air. After exposure to the agent, the cells were washed with 0.9% phosphate buffered saline. Growth inhibition was determined using WST-1 cell proliferation reagent as described above. The results are expressed as the growth fraction of treated cells compared with control cultures. Representative compounds of the present invention were tested for efficacy against the human colon HCT116 tumor cells."}, "HUMAN OVARIAN BG-1": {"tested_on": "HUMAN OVARIAN BG-1", "assay": "Early stage human ovarian BG-1 xenograft (Table IX)", "format": "in vivo", "conditions": "Balb/C SCID female mice", "from_the_text": "(§1) Conventional Murine Tumor and Human Tumor Xenouraft Assays\nInhibition of tumors transplanted into mice is an accepted procedure for studying the efficacy of antitumor agents (Corbett, et al., In vivo Methods for Screening and Preclinical Testing; Use of rodent solid tumors for drug discovery., In: Anticancer Drug Development Guide: Preclinical Screening, Clinical Trials, and Approval, B. Teicher (ed), Humana Press Inc., Totowa, N.J., Chapter 5, pages 75–99 (1997); (Corbett, et al., Int., J. Parmacog., 33, Supplement, 102–122 (1995)). Murine tumors or human xenographs were implanted essentially as described by Corbett in In vivo Methods for Screening and Preclimical Testing; Use of rodent solid tumors for drug discovery. Briefly, the murine tumor or human xenograph was implanted subcutaneously using either 12-gauge trocar implants or counted number of cells. The location for the trocar insertion is midway between the axillary and inguinal region along the side of the mouse. The trocar is slipped approximately ¾ of an inch subcutaneously up toward the axilla before discharging the tumor fragment, and pinching the skin as the trocar is removed., Alternatively, human tumor cells prepared from a […] of donor tumors (5×10^6 cells) were implanted subcutaneously in a hind-leg of a male or female nude mouse (Charles River). Either a test compound in vehicle or vehicle alone was administered by intravenous bolus injection (iv), intraperitoneal injection (ip), or oral gavage (po). Each treatment group, as well as a group of untreated control animals, consisted of five animals per group in each experiment. Subcutaneous tumor response was monitored by tumor volume measurement performed twice each week over the course of the experiment (60–120 days). Body weights were taken as a general measure of toxicity. The subcutaneous tumor data were analyzed by determining the median tumor weight for each treatment group over the course of the experiment and calculating the tumor growth delay as the difference in days for the treatment versus the control tumors to reach a volume of either 500 or 1000 mm^3.\n(§2) The compound of Example 110 was tested against a variety of murine and human tumors substantially as described supra. The parameters measured in each experiment are summarized in the following paragraphs. • Tumor Weight(mg)=(a×b^2)/2 where a=tumor length (mm) and b=tumor width (mm). • Tumor Growth Delay=T−C where T is the median time (days) required for the treatment group tumors to reach a predetermined size, and C is the median time (days) for the control group tumors to reach the same size. Tumor-free survivors are excluded from this calculation, and are tabulated separately (Tumor Free).\n[formula] • where Tumor Growth Delay is as previously defined and Td is tumor volume doubling time (days), estimated from the best fit straight line from a log-linear growth plot of the control group of tumors in exponential growth (100–800 mg range) • % T/C mass—The treatment and control groups are measured when the control group tumors reach approximately 700 to 1200 mg in size (median group). The median tumor weight of each group is determined (including zeros). The T/C value in percent is an indication of antitumor effectiveness. A T/C≦42% is considered significant antitumor activity. A T/C<10% is considered to indicate highly significant antitumor activity. • Body Weight Loss Nadir—A body weight loss nadir (mean of group) of greater than 20% or drug deaths greater than 20% are considered to indicate an excessively toxic dosage in single course trials. • Activity Rating—the Activity Rating is derived from the Log Kill according to the following table: […]"}, "[2]": {"tested_on": "MURINE SQUAMOUS LUNG LC-12", "assay": "Early stage murine squamous lung LC-12 (Table VI)", "format": "in vivo", "conditions": "Balb/C female mice", "from_the_text": "as §1\nBriefly, the murine tumor or human xenograph was implanted subcutaneously using either 12-gauge trocar implants or counted number of cells. The location for the trocar insertion is midway between the axillary and inguinal region along the side of the mouse. The trocar is slipped approximately ¾ of an inch subcutaneously up toward the axilla before discharging the tumor fragment, and pinching the skin as the trocar is removed., Alternatively, human tumor cells prepared from a […] of donor tumors (5×10^6 cells) were implanted subcutaneously in a hind-leg of a male or female nude mouse (Charles River). Either a test compound in vehicle or vehicle alone was administered by intravenous bolus injection (iv), intraperitoneal injection (ip), or oral gavage (po). Each treatment group, as well as a group of untreated control animals, consisted of five animals per group in each experiment. […] Body weights were taken as a general measure of toxicity. The subcutaneous tumor data were analyzed by determining the median tumor weight for each treatment group over the course of the experiment and calculating the tumor growth delay as the difference in days for the treatment versus the control tumors to reach a volume of either 500 or 1000 mm^3.\nas §2, with “The” for “The compound of Example 110 was tested against a variety of murine and human tumors substantially as described supra. The”\nThe median tumor weight of each group is determined (including zeros). The T/C value in percent is an indication of antitumor effectiveness."}, "[3]": {"conditions": "total dose 600 mg/kg: 100 mg/kg/injection IV on days 3–5 and 9–11"}, "[4]": {"conditions": "total dose 870 mg/kg: 145 mg/kg/injection IV on days 3–5 and 9–11"}, "[5]": {"conditions": "total dose 640 mg/kg: 160 mg/kg/injection IV on days 4, 6, 8, and 10"}, "[6]": {"conditions": "total dose 1391 mg/kg: 107 mg/kg/injection IV every second day, days 4 to 28"}},
  "data": [
    {"compound": "O=C(NS(=O)(=O)c1ccccc1)c1ccc(Cl)cc1Cl", "note": "[Example 110, N-[2,4-dichlorobenzoyl]phenylsulfonamide]", "values": [
      {"measurement": "IC50", "setting": "[1]", "value": 3.5, "unit": "µM"},
      {"measurement": "% BODY WT LOSS AT NADIR", "setting": "HUMAN OVARIAN BG-1; [3]", "value": "−3.0", "unit": "%"},
      {"measurement": "% T/C MASS", "setting": "HUMAN OVARIAN BG-1; [3]", "value": 0, "unit": "%"},
      {"measurement": "ACTIVITY RATING", "setting": "HUMAN OVARIAN BG-1; [3]", "value": "++++ (HIGHLY ACTIVE >2.8)"},
      {"measurement": "DRUG DEATHS", "setting": "HUMAN OVARIAN BG-1; [3]", "value": "0/5"},
      {"measurement": "GROWTH DELAY", "setting": "HUMAN OVARIAN BG-1; [3]", "value": 30, "unit": "days"},
      {"measurement": "LOG KILL", "setting": "HUMAN OVARIAN BG-1; [3]", "value": 3.6},
      {"measurement": "TUMOR FREE AT DAY 176", "setting": "HUMAN OVARIAN BG-1; [3]", "value": "0/5"},
      {"measurement": "% BODY WT LOSS AT NADIR", "setting": "HUMAN OVARIAN BG-1; [4]", "value": "−2.0", "unit": "%"},
      {"measurement": "% T/C MASS", "setting": "HUMAN OVARIAN BG-1; [4]", "value": 0, "unit": "%"},
      {"measurement": "ACTIVITY RATING", "setting": "HUMAN OVARIAN BG-1; [4]", "value": "++++ (HIGHLY ACTIVE >2.8)"},
      {"measurement": "DRUG DEATHS", "setting": "HUMAN OVARIAN BG-1; [4]", "value": "0/5"},
      {"measurement": "GROWTH DELAY", "setting": "HUMAN OVARIAN BG-1; [4]", "value": 30.5, "unit": "days"},
      {"measurement": "LOG KILL", "setting": "HUMAN OVARIAN BG-1; [4]", "value": 3.7},
      {"measurement": "TUMOR FREE AT DAY 176", "setting": "HUMAN OVARIAN BG-1; [4]", "value": "1/5"},
      {"measurement": "% BODY WT LOSS AT NADIR", "setting": "[2]; [5]", "value": 0, "unit": "%"},
      {"measurement": "% T/C MASS", "setting": "[2]; [5]", "value": 14, "unit": "%"},
      {"measurement": "ACTIVITY RATING", "setting": "[2]; [5]", "value": "++ (1.3–1.9)"},
      {"measurement": "DRUG DEATHS", "setting": "[2]; [5]", "value": "0/4"},
      {"measurement": "GROWTH DELAY", "setting": "[2]; [5]", "value": 12.5, "unit": "days"},
      {"measurement": "LOG KILL", "setting": "[2]; [5]", "value": 1.7},
      {"measurement": "TUMOR FREE AT DAY 174", "setting": "[2]; [5]", "value": "0/4"},
      {"measurement": "% BODY WT LOSS AT NADIR", "setting": "[2]; [6]", "value": "+1.6%"},
      {"measurement": "% T/C MASS", "setting": "[2]; [6]", "value": 20, "unit": "%"},
      {"measurement": "ACTIVITY RATING", "setting": "[2]; [6]", "value": "+++ (2.0–2.8)"},
      {"measurement": "DRUG DEATHS", "setting": "[2]; [6]", "value": "0/5"},
      {"measurement": "GROWTH DELAY", "setting": "[2]; [6]", "value": 15.5, "unit": "days"},
      {"measurement": "LOG KILL", "setting": "[2]; [6]", "value": 2.1},
      {"measurement": "TUMOR FREE AT DAY 174", "setting": "[2]; [6]", "value": "0/5"}
    ]}
  ]
}
